Publication PMC10973839, “CHF6297: a novel potent and selective p38 MAPK inhibitor with robust anti-inflammatory activity and suitable for inhaled pulmonary administration as dry powder” (Frontiers in Pharmacology, 2024)

What was measured:
[1] = test system: i.v. LPS-induced TNF-α in blood; assay: Intravenous LPS-induced TNF-α release in rat blood; type: in vivo, rats; conditions: oral gavage, i.v. LPS
rat PBMCs = assay: TNF-α release in LPS-stimulated PBMCs; type: cell-based; conditions: PBMC, LPS 10 ng/mL, 18 h
Method: Peripheral blood mononuclear cells (PBMCs) were isolated from the blood of healthy human volunteers and Wistar rats (250–350 gr; Charles River, Calco, Italy) using a standard density gradient centrifugation technique. The citrated blood was placed onto Histopaque^TM and centrifuged. The PBMCs were then removed from the density gradient interface and washed in phosphate-buffered saline (PBS). The PBMCs were suspended in RPMI 1640 medium (without serum), aliquoted into a 96-well plate, and incubated at 37°C for 3 h in a humidified incubator. After incubation, the medium was replaced (with a medium containing 1% fetal bovine serum), and the plate was incubated at 37°C, for 1 h, in the presence of a test compound or the appropriate vehicle. LPS (10 ng/mL), or an appropriate vehicle control, was then added to the cells, and the plate was returned to the incubator for 18 h. Cell-free supernatants were removed and assayed for TNF-α levels using MSD plates on the SECTOR Imager 6000 (Meso Scale).

HBSMCs = assay: CSE-evoked IL-8 release in human bronchial smooth muscle cells; type: cell-based
Method: Cigarette smoke extract (CSE) was generated as reported previously ([Moretto et al., 2012]). Briefly, aqueous CSE was obtained from the combustion of four cigarettes (Marlboro Red, 12 mg tar, 0.9 mg nicotine each) bubbled through 50 mL of the culture medium and subsequently filtered through a 0.2-μm-pore filter (Millipore, Billerica, MA). To ensure reproducibility among different CSE batches, the absorbance [optical density (OD)] measured at 320 nm was used as a measure of the “strength” of the extract. Dilutions were made with culture media to obtain the desired absorbance. The CSE was freshly prepared on the day of the experiment and immediately used after preparation. Human bronchial smooth muscle cells (HBSMCs) were seeded in DMEM with 10% FBS (50 U/mL penicillin, 0.05 mg/mL streptomycin, and 2 mM L-glutamine) in 48-well plates at a density of 10,000 cells/well, grown to ∼80%–90% confluence and incubated overnight in serum-free DMEM before treatments. All the treatments were performed in serum-free DMEM. The cells were pretreated for 30 min with either the vehicle or CHF6297 or losmapimod before stimulation with freshly prepared CSE, TNF-α, (1 ng/mL), or the vehicle for 18 h at 37°C. Human IL-8 was measured in the collected supernatants by use of a paired-antibody quantitative ELISA kit (BioSource International, Camarillo, CA).

[2] = test system: TS-induced neutrophil influx in BALF; assay: BALF neutrophilia induced by tobacco smoke exposure in mice; type: in vivo, C57BL6J female mice; conditions: 0.3 mg/kg i.n., 4 days TS exposure
Method: C57BL6J female mice aged 9–10 weeks (Harlan Laboratories S.r.l) in groups of 8 were exposed, via whole-body inhalation, twice daily 1 h apart, for 4 consecutive days, to the tobacco smoke (TS) (generated using “Marlboro Gold: 9 mg of tar and 0.7 mg nicotine”) of two cigarettes/exposure on days 1 and 2, three cigarettes/exposure on day 3, and four cigarettes/exposure on the last exposure day in clear polycarbonate chambers (27 cm × 16 cm × 12 cm). The smoke was introduced into the exposure chambers (21100-790 Ugo Basile, Biological Research Instruments, Comerio, Varese, Italy), with the airflow generated by using a mechanical ventilator (7025 Rodent Ventilator, Ugo Basile). Each exposure chamber was connected to a different ventilator set at a rate of 100 mL/min (frequency: 50 strokes/min; volume: 2 mL/stroke). At regular intervals (after burning two cigarettes), the exposure chambers were opened and aired. Sham and control mice were exposed to air only in the same manner for the same duration of time.
CHF6297 (0.03 and 0.3 mg/kg) and budesonide (0.3 mg/kg), our reference compound and vehicle (0.2% Tween 80 in saline), respectively, were administered intranasally in a volume of 30 µL, 1 h before and 5 h after TS exposure under light isoflurane anesthesia.
A BAL was performed using a volume of 0.6 mL of phosphate-buffered saline that was gently instilled and withdrawn three times using a 12-mL syringe. BALF cells were separated by centrifugation (10 min at 3,070 g), and the supernatant was removed. The resulting cell pellet was resuspended in a known volume of PBS, and the total cell numbers were calculated by counting a stained (Turk’s stain) aliquot under a microscope using a hemacytometer. The cell pellet was resuspended to approximately 10^5 cells per ml, and cytospin slides were prepared by centrifugation (8 min at 72.26 g; Shandon Cytospin; Thermo Shandon Ltd., Runcorn, Cheshire, United Kingdom). The slides were air-dried and stained using Wright–Giemsa stain, following the manufacturer’s instructions. A differential cell count was performed using light microscopy. Approximately 400 cells were counted from each slide. The cells were identified using standard morphometric techniques.

[3] = test system: IAV-induced airway neutrophilia in HDM-challenged mice; assay: Influenza virus A (H3N2)-induced exacerbation in HDM-sensitized mice; type: in vivo, Balb/c mice; conditions: 100 μg/kg twice daily for 3 days

SMILES	effect on TNF-α levels in blood [1]	IC50 (rat PBMCs)	maximum inhibition of IL-8 (HBSMCs; CSE-evoked)	IC50 (HBSMCs; Homo sapiens, 18 h)	neutrophils in BALF [2]	neutrophils in BAL fluid [3]
Cc1c(F)cc(C(=O)NC2CC2)cc1-c1ccc(C(=O)NCC(C)(C)C)cn1 [losmapimod, reference compound]	marked reduction in TNF-α levels	11.9 nM	100%	9.13 nM	–	–
CCCC1O[C@@H]2C[C@H]3[C@@H]4CCC5=CC(=O)C=C[C@]5(C)[C@H]4[C@@H](O)C[C@]3(C)[C@]2(C(=O)CO)O1 (stereo partly drawn) [budesonide, reference compound]	–	–	–	–	0.5 ± 0.1 × 10^5 cells/mL	2.08 ± 0.23 × 10^5 cells/mL
